For series [1], the system named is CaKi-1 cells. The note with it: cited from earlier work.
Series [2] deals with human prostate carcinoma cell line PPC-1. Nature of the series: MTT cell viability assay, PPC-1. The note with it: 72 hours of incubation, n = 3, read-out: EC50 against PPC-1. The format is cell-based. On the procedure:
(§1) The human clear cell renal cell carcinoma line (CaKi-1) was obtained from American Type Culture Collection (ATCC, Manassas, VA). The human prostate carcinoma cell line PPC-1 was originally obtained from ATCC and kindly provided by Prof. Tambet Teesalu (University of Tartu, Estonia). Human foreskin fibroblasts (HF) CRL-4001 were originally obtained from ATCC and kindly provided by Prof. Helder Santos (University of Helsinki, Finland). Cells were cultured in Dulbecco’s Modified Eagle’s GlutaMAX medium (Gibco (Carlsbad, CA, USA) supplemented with 10,000 U/mL penicillin, 10 mg/mL streptomycin (Gibco), and 10% fetal bovine serum (Gibco). During cell passaging, Tryple Express reagent (Gibco) was used for cell detachment. Cell cultures were grown at 37°C in a humidified atmosphere containing 5% CO2. They were used until the passage of 20.
(§2) The effect of synthesized compounds on cell viability was studied using 3-(4,5-dimethylthiazol-2-yl)-2,5-diphenyltetrazolium bromide (MTT; Sigma-Aldrich Co., St Louis, MO, USA) assay, as described elsewhere. […] The absorbance was measured at 570 and 630 nm using a multi-detection microplate reader. The compound effect on cell viability was calculated using a formula (1): Relativecellviability%=A−A0/ANC−A0 (1) Where: […]
A general note: Tetrazolium dyes change colour on reduction, which living cells bring about.

In series [3] the test system is Human foreskin fibroblasts (HF) CRL-4001. Briefly: MTT cell viability assay, fibroblasts HF. It counts as cell-based. Conditions: Fibroblast, 72 hours of incubation, n = 3, read-out: EC50 against HF. Here is the method: as §1, §2
Series [4] deals with human clear cell renal cell carcinoma line (CaKi-1). Nature of the series: MTT cell viability assay, CaKi-1. The format is cell-based. Conditions: 72 hours of incubation, n = 3, read-out: EC50 against CaKi-1. Here is the method: as §1, §2
For series [5], the system named is HF, PPC-1, and CaKi-1 cells. Nature of the series: MTT cell viability screen at 100 μM (cell line not given). It counts as cell-based, human. Conditions: 72 h, cell line not stated. On the procedure:
The effect of synthesized compounds on cell viability was studied using 3-(4,5-dimethylthiazol-2-yl)-2,5-diphenyltetrazolium bromide (MTT; Sigma-Aldrich Co., St Louis, MO, USA) assay, as described elsewhere. Briefly, HF, PPC-1, and CaKi-1 cells were seeded in 96-well plates (Corning) in triplicates at a volume of 100 μL at a concentration of 4 × 10^3 cells/well. After 24 h of incubation, the cells were treated with 100 μM of tested compounds. After 72 h, the MTT reagent (at 0.5 mg/mL concentration) has been added to the wells, and cells were incubated for 4 h. Then the medium was aspirated, and the formed purple crystals were dissolved in 100 μL DMSO (Sigma-Aldrich Co.). The absorbance was measured at 570 and 630 nm using a multi-detection microplate reader. The compound effect on cell viability was calculated using a formula (1): Relativecellviability%=A−A0/ANC−A0 (1) Where: […]

Molecules are shown by their SMILES. pEC50: −log10 of the molar value. Where two headings read alike, the source gives them in different places.

The term pEC50 denotes the EC50 on a negative log10 scale, so that one unit is a factor of ten. In the case of `CCN(CC)CCNC(=O)c1c(C)[nH]c(/C=C2\C(=O)Nc3ccc(F)cc32)c1C` [sunitinib], the pEC50 in series [1] (read-out: EC50 against CaKi-1 cells) is 5.66.
Consider `Cc1ccc(Nc2nccc(N(C)c3ccc4c(C)n(C)nc4c3)n2)cc1S(N)(=O)=O` [pazopanib], for which, in series [1] (after 72 hours of incubation, read-out: EC50 (renal cancer drugs, compared with CaKi-1 data)), the negative-log EC50 (pEC50) was 4.52.
The melting point is the temperature of the solid-liquid transition. `Cc1cc(NS(=O)(=O)c2ccc(NCCC(=O)NN=Cc3cccc4ccccc34)cc2)no1` [Compound 15k, N-(5-methylisoxazol-3-yl)-4-((3-(2-(naphthalen-1-ylmethylene)hydrazineyl)-3-oxopropyl)amino)-benzenesulfonamide]: the melting point fell in the range of 206 to 207 °C. For the same molecule, the pEC50 in series [2] is under 4.00. Further, the negative logarithm of the EC50 (pEC50) in series [3] was under 4.00. The pEC50 in series [4] was under 4.00. Besides, the “reduced cell viability up to about” value in series [5] is listed as “about 40%”.

The values above are taken from PMC10035904, “Synthesis of novel sulphamethoxazole derivatives and exploration of their anticancer and antimicrobial properties” (PLOS ONE, 2023).
